Structures are written as SMILES.

One test concerns the target T1, L858R/T790M/C797S EGFR (Homo sapiens, UniProt P00533, C797S/L858R/T790M).
T1 construct: expressed in transfected cells; host or cells: H1975 clone #25 (lentiviral over-expression, endogenous EGFR knocked out by sgRNA)
Briefly: EGFR degradation HTRF assay in H1975-clone #25 (LTC) cells. The format is cell-based. Conditions: 16h treatment; for DC50: H1975 # 25-LTC (L858R/T790M/C797S), HTRF; for Dmax: NCI-H1975, H1975 # 25-LTC (L858R/T790M/C797S), maximum percentage of degradation. The method in brief: (§1)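 Each homozygous H1975 clone was dosed for 16 h at 37 °C with an 8-dose, 5-fold series (top 10 uM, 0.2% DMSO). An HTRF antibody pair then measured EGFR in lysates, and a sigmoidal fit of percent inhibition gave DC50.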
(In general: Time-resolved FRET reads energy transfer from a long-lived donor to a nearby acceptor.)

A further test relates to Del19/T790M/C797S EGFR. Briefly: EGFR degradation HTRF assay in H1975-clone #28 (DTC) cells. The class given is cell-based. Conditions: H1975 # 28 DTC (Del19/T790M/C797S), 16h treatment; for DC50: HTRF; for Dmax (%): maximum percentage of degradation. The method in brief: as §1

T1 sequence (P00533 25-1210 T790M/C797S/L858R): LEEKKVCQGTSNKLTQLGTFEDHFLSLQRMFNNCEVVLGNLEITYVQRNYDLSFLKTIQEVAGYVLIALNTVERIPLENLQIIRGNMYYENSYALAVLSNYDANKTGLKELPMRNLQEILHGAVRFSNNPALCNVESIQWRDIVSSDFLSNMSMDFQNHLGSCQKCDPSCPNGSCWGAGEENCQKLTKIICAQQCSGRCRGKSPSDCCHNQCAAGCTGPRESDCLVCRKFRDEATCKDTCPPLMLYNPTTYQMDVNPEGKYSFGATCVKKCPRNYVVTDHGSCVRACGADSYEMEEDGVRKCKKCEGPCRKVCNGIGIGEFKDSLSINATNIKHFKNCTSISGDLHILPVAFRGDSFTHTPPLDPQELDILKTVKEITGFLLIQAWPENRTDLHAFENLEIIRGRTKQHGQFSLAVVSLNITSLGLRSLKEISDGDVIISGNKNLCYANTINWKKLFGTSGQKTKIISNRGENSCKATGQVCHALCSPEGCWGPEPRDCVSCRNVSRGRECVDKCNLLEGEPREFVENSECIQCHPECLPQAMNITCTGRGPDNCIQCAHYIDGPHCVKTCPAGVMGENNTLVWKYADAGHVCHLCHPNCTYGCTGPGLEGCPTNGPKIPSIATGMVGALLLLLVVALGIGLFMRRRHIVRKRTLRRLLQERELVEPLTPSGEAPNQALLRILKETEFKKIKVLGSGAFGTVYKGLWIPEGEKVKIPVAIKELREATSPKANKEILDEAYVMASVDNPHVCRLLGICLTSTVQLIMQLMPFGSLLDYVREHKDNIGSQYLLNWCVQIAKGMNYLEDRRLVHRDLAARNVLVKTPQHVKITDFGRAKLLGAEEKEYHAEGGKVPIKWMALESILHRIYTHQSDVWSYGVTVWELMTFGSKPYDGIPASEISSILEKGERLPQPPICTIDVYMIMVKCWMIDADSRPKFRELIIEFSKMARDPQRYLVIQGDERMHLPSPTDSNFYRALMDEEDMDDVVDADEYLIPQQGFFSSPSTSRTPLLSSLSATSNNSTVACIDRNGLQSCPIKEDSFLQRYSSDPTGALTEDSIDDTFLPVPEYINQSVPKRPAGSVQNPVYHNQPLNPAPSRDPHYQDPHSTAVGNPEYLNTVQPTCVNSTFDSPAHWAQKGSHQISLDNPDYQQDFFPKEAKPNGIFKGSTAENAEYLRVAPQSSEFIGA

Consider `Cc1cc2cc(n1)-c1cnn(C)c1OCCC[C@@H](C)CN1/C(=N/C2=O)Nc2ccc(N(C)C3CCN(C(=O)[C@@H]4CCN(c5cc(F)c([C@H]6CCC(=O)NC6=O)c(F)c5)C4)CC3)cc21` [Example 172, (R)-3-(2,6-difluoro-4-((R)-3-(4-(methyl((R,E)-1^1,2^6,7-trimethyl-3-oxo-5^2,5^3-dihydro-1^1H,5^1H-11-oxa-4-aza-5(2,1)-benzo[d]imidazola-2(2,4)-pyridina-1(4,5)-pyrazolacycloundecaphane-5^6-yl)amino)piperidine-1-carbonyl)pyrrolidin-1-yl)phenyl)piperidine-2,6-dione], for which, at L858R/T790M/C797S EGFR, half-maximal degradation (DC50) was put at 0.954 nM and the Dmax was found to be 90.6%. Besides, in the test on Del19/T790M/C797S EGFR, half-maximal degradation (DC50) was put at 0.663 nM and the “Dmax (%)” value is reported as 75.08%.
At L858R/T790M/C797S EGFR, `Cc1cc2cc(n1)-c1cnn(C)c1OCCC[C@@H](C)CN1/C(=N/C2=O)Nc2ccc(N3CCN(C4CCN(c5ccc(C6CCC(=O)NC6=O)nc5)CC4)CC3=O)cc21` (stereo partly drawn) [Example 395, 3-(5-(4-(3-oxo-4-((R,E)-1^1,2^6,7-trimethyl-3-oxo-5^2,5^3-dihydro-1^1H,5^1H-11-oxa-4-aza-5(2,1)-benzo[d]imidazola-2(2,4)-pyridina-1(4,5)-pyrazolacycloundecaphane-5^6-yl)piperazin-1-yl)piperidin-yl-)pyridin-2-yl)piperidine-2,6-dione] displayed a DC50 of 1.02 nM and a Dmax of 84.5%. For the same compound, in the test with Del19/T790M/C797S EGFR, the DC50 came to 0.526 nM and the “Dmax (%)” value amounted to 77.96%.
At L858R/T790M/C797S EGFR, `Cc1cc2cc(n1)-c1cnn(C)c1OCCC[C@@H](C)CN1/C(=N/C2=O)Nc2ccc(C(=O)N(C)[C@H]3CCN(CCc4cc(F)c([C@H]5CCC(=O)NC5=O)c(F)c4)[C@H](C)C3)cc21` [Example 259, (R,E)-N—((2R,4S)-1-(4-((R)-2,6-dioxopiperidin-3-yl)-3,5-difluorophenethyl)-2-methylpiperidin-4-yl)-N,1^1,2^6,7-tetramethyl-3-oxo-5^2,5^3-dihydro-1^1H,5^1H-11-oxa-4-aza-5(2,1)-benzo[d]imidazola-2(2,4)-pyridina-1(4,5)-pyrazolacycloundecaphane-5^6-carboxamide] yielded a DC50 of 0.841 nM and a Dmax of 89.2%. In the test with Del19/T790M/C797S EGFR, the DC50 is 0.725 nM and the “Dmax (%)” value came to 83.21%.
On to `Cc1cc2cc(n1)-c1cnn(C)c1OCCC[C@@H](C)CN1/C(=N/C2=O)Nc2ccc(N3CCN(CCN(C)c4cc(F)c([C@H]5CCC(=O)NC5=O)c(F)c4)CC3)cc21` [Example 407, (R)-3-(2,6-difluoro-4-(methyl(2-(4-((R,E)-1^1,2^6,7-trimethyl-3-oxo-5^2,5^3-dihydro-1^1H,5^1H-11-oxa-4-aza-5(2,1)-benzo[d]imidazola-2(2,4)-pyridina-1(4,5)-pyrazolacycloundecaphane-5^6-yl)piperazin-1-yl)ethyl)amino)phenyl)piperidine-2,6-dione], for which, on L858R/T790M/C797S EGFR, it took 2.29 nM to reach half-maximal degradation (DC50) and the maximal degradation (Dmax) was 87.9%. In addition, in the test with Del19/T790M/C797S EGFR, half-maximal degradation (DC50) was put at 2.09 nM and the “Dmax (%)” value was 78.49%.
`CCN(CCN1CCN(c2cc(F)c([C@H]3CCC(=O)NC3=O)c(F)c2)CC1)C(=O)c1ccc2c(c1)N1C[C@H](C)CCCOc3c(cnn3C)-c3cc(cc(C)n3)C(=O)/N=C/1N2` [Example 281, (R,E)-N-(2-(4-(4-((R)-2,6-dioxopiperidin-3-yl)-3,5-difluorophenyl)piperazin-1-yl)ethyl)-N-ethyl-1′,2^6,7-trimethyl-3-oxo-5^2,5^3-dihydro-1^1H,5^1H-11-oxa-4-aza-5(2,1)-benzo[d]imidazola-2(2,4)-pyridina-1(4,5)-pyrazolacycloundecaphane-5^6-carboxamide]: on L858R/T790M/C797S EGFR, half-maximal degradation (DC50) was put at 0.411 nM and the Dmax was 90.4%. Besides, in the test with Del19/T790M/C797S EGFR, the DC50 is 0.501 nM and the “Dmax (%)” value is 75.01%.
Taken in the same sequence, the figures for `Cc1cc2cc(n1)-c1cnn(C)c1OCCC[C@@H](C)CN1/C(=N/C2=O)Nc2ccc(C(=O)NC3CCN(CCc4cc(F)c([C@H]5CCC(=O)NC5=O)c(F)c4)CC3)cc21` [Example 242, (R,E)-N-(1-(4-((R)-2,6-dioxopiperidn-3-yl)-3,5-difluorophenethyl)piperidin-4-yl)-1^1,2^6,7-trimethyl-3-oxo-5^2,5′-dihydro-1^1H,5^1H-li-oxa-4-aza-5(2,1)-benzo[d]imidazola-2(2,4)-pyridina-1(4,5)-pyrazolacycloundecaphane-5^6-carboxamide] were 0.321 nM, 93.2%, 0.352 nM and 88.18%.
On L858R/T790M/C797S EGFR, `Cc1cc2cc(n1)-c1cnn(C)c1OCCCC1(CC1)CN1/C(=N/C2=O)Nc2ccc(C(=O)N(C)C3CCN(CCc4cc(F)c([C@H]5CCC(=O)NC5=O)c(F)c4)CC3)cc21` [Example 236, (R,E)-N-(1-(4-(2,6-dioxopiperidin-3-yl)-3,5-difluorophenethyl)piperidin-4-yl)-N,1′,6′-trimethyl-3′-oxospiro[cyclopropane-1,7′-11-oxa-4-aza-5(2,1)-benzo[d]imidazola-2(2,4)-pyridina-1(4,5)-pyrazolacycloundecaphane]-6′-carboxamide] gave a half-maximal degradation concentration (DC50) of 0.546 nM and a Dmax of 88.4%. In the test with Del19/T790M/C797S EGFR, the DC50 worked out at 0.42 nM and the “Dmax (%)” value was 87.56%.
Taken in the same sequence, the figures for `Cc1cc2cc(n1)-c1cnn(C)c1OCCC[C@@H](C)CN1/C(=N/C2=O)Nc2ccc(C(=O)N(C)C3CC4CCCC(C3)N4CCc3cc(F)c([C@H]4CCC(=O)NC4=O)c(F)c3)cc21` (stereo partly drawn) [Example 266, (7R,E)-N-(9-(4-((R)-2,6-dioxopiperidin-3-yl)-3,5-difluorophenethyl)-9-azabicyclo[3.3.1]nonan-3-yl) -N,1^1,2^6,7-tetramethyl-3-oxo-5^2,5^3-dihydro-1^1H,5^1H-11-oxa-4-aza-5(2,1)-benzo[d]imidazola-2(2,4)-pyridina-1(4,5)-pyrazolacycloundecaphane-5^6-carboxamide] were 1.51 nM, 81.4%, 0.65 nM and 75.93%.
On L858R/T790M/C797S EGFR, `Cc1cc2cc(n1)-c1cnn(C)c1OCCC[C@@H](C)CN1/C(=N/C2=O)Nc2ccc(CN3CCN(C(=O)[C@@H]4CCN(c5cc(F)c([C@H]6CCC(=O)NC6=O)c(F)c5)C4)CC3=O)cc21` [Example 200, (R)-3-(2,6-difluoro-4-((R)-3-(3-oxo-4-(((R,E)-1^1,2^6,7-trimethyl-3-oxo-5^2,5^3-dihydro-1^1H,5^1H-11-oxa-4-aza-5(2,1)-benzo[d]imidazola-2(2,4)-pyridina-1(4,5)-pyrazolacycloundecaphane-5^6-yl)methyl)piperazine-1-carbonyl)pyrrolidin-1-yl)phenyl)piperidine-2,6-dione] displayed a DC50 of 1.22 nM and a Dmax of 86%. Further, in the test with Del19/T790M/C797S EGFR, half-maximal degradation (DC50) was put at 1.38 nM and the “Dmax (%)” value is 73.04%.
In the case of `COC[C@H]1CN(C(=O)[C@@H]2CCN(c3cc(F)c([C@H]4CCC(=O)NC4=O)c(F)c3)C2)CCN1Cc1ccc2c(c1)N1C[C@H](C)CCCOc3c(cnn3C)-c3cc(cc(C)n3)C(=O)/N=C/1N2` [Example 194, (R)-3-(2,6-difluoro-4-((R)-3-((R)-3-(methoxymethyl)-4-(((R,E)-1^1,2^6,7-trimethyl-3-oxo-5^2,5^3-dihydro-1^1H,5^1H-11-oxa-4-aza-5(2,1)-benzo[d]imidazola-2(2,4)-pyridina-1(4,5)-pyrazolacycloundecaphane-5′-yl)methyl)piperazine-1-carbonyl)pyrrolidin-1-yl)phenyl)piperidine-2,6-dione], on L858R/T790M/C797S EGFR, the DC50 stood at 1.18 nM and the greatest degradation seen (Dmax) stood at 84.4%. In the test with Del19/T790M/C797S EGFR, the 50% degradation concentration (DC50) came out at 0.836 nM and the “Dmax (%)” value came to 79.44%.
At L858R/T790M/C797S EGFR, `Cc1cc2cc(n1)-c1cnn(C)c1OCCC[C@@H](C)CN1/C(=N/C2=O)Nc2ccc(N3CCN(CCc4ccc(C5CCC(=O)NC5=O)nc4C)CC3)cc21` (stereo partly drawn) [Example 393, 3-(6-methyl-5-(2-(4-((R,E)-1^1,2^6,7-trimethyl-3-oxo-5^2,5^3-dihydro-1^1H,5^1H-11-oxa-4-aza-5(2,1)-benzo[d]imidazola-2(2,4)-pyridina-1(4,5)-pyrazolacycloundecaphane-5^6-yl)piperazin-1-yl)ethyl)pyridin-2-yl)piperidine-2,6-dione] showed a DC50 of 0.34 nM and a Dmax of 89.8%. Moreover, in the test with Del19/T790M/C797S EGFR, the DC50 stood at 0.54 nM and the “Dmax (%)” value was 77.73%.
As to `Cc1cc2cc(n1)-c1cnn(C)c1OCCC[C@@H](C)CN1/C(=N/C2=O)Nc2ccc(C(=O)N(C)C3CCN(CCc4cccc5c4n(C)c(=O)n5C4CCC(=O)NC4=O)CC3)cc21` (stereo partly drawn) [Example 314, (7R,E)-N-(1-(2-(1-(2,6-dioxopiperidin-3-yl)-3-methyl-2-oxo-2,3-dihydro-1H-benzo[d]imidazol-4-yl)ethyl)piperidin-4-yl)-N,1^1,2^6,7-tetramethyl-3-oxo-5^2,5′-dihydro-1^1H,5^1H-11-oxa-4-aza-5(2,1)-benzo[d]imidazola-2(2,4)-pyridina-1(4,5)-pyrazolacycloundecaphane-5^6-carboxamide], at L858R/T790M/C797S EGFR, half-maximal degradation (DC50) was put at 2.59 nM and the Dmax turned out to be 75.3%. Besides, in the test on Del19/T790M/C797S EGFR, the DC50 stood at 3.37 nM and the “Dmax (%)” value amounted to 50.86%.

The DC50 is the concentration giving 50% degradation. The low end stands for a more potent degrader, the high end for a less potent degrader. A word on the Dmax: it is the greatest extent of degradation seen. High values mean a fuller loss of target, low ones a partial loss of target.

For the origin of these results see patent publication US20240342292A1, “Compounds for the Degradation of EGFR Kinase” (BeiGene Switzerland GmbH, priority 2021, published 2024).
